Laboratory results from ChEMBL document CHEMBL1146127, “Aminobenzisoxazoles with biaryl P4 moieties as potent, selective, and orally bioavailable factor Xa inhibitors” (Bioorg Med Chem Lett, 2006).

Tests used:
in vivo [1] = settings: dog, iv, 0.4 mg/kg
in vivo [2] = settings: dog, po, 0.2 mg/kg
in vivo [3] = settings: dog, iv, 0.4 mg/kg; remark: listed apart in the source
in vivo [4] = settings: dog

Nc1noc2ccc(-n3nc(C(F)(F)F)cc3C(=O)Nc3ccc(-c4ccccc4CN4CCCC4)cc3F)cc12
Vd (in vivo [1]): 23 L/kg
bioavailability (in vivo [2]): 64%
clearance (in vivo [3]): 28.3 mL/min/kg
half-life (in vivo [4]): 10 h
